Assay results reported in patent US12371428B2 (Exelixis, Inc., priority 2019, dated 2025).
Where a name gives a salt, the structure may show the parent alone.

What was measured:
[1] = biological target: Human MET (residues 956-1390) (Homo sapiens (Human), UniProt P08581); experiment: Human Met kinase assay, HTRF KinEase (Example D-2); assay type: biochemical; settings: protocol of Example D-2 (other compounds); read-out: c-Met IC50
Outline: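 HTRF KinEase assay on MET residues 956-1390 (0.1 ng/well) in buffer with 5 mM MgCl2, 1 mM DTT and 1 mM MnCl2, with biotinylated peptide substrate, ATP at Km, 10 compound concentrations and 3% DMSO final, run 40 min at room temperature. The […] signal was normalized to DMSO and to 1 μM reference compound, and IC50 came from a 4-parameter logistic fit.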

[2] = biological target: Met (phospho-Met, HGF-stimulated PC-3 prostate cancer cells) (Homo sapiens (Human), UniProt P08581); experiment: Met autophosphorylation ELISA in PC-3 cells (Example F); assay type: cell-based; settings: cellular activity; Met autophosphorylation ELISA in PC-3 cells; read-out: c-Met IC50
Outline: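 Sandwich ELISA for phospho-Met (panTyr) in PC-3 lysates. Cells starved 3 h serum-free, compound 1 h (8-pt curve, 0.3% DMSO), HGF 100 ng/mL 10 min. 100% = HGF + DMSO; 0% = HGF + reference inhibitor. IC50 by 4-parameter fit.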

Sequence of Met (phospho-Met, HGF-stimulated PC-3 prostate cancer cells) (P08581 25-1390): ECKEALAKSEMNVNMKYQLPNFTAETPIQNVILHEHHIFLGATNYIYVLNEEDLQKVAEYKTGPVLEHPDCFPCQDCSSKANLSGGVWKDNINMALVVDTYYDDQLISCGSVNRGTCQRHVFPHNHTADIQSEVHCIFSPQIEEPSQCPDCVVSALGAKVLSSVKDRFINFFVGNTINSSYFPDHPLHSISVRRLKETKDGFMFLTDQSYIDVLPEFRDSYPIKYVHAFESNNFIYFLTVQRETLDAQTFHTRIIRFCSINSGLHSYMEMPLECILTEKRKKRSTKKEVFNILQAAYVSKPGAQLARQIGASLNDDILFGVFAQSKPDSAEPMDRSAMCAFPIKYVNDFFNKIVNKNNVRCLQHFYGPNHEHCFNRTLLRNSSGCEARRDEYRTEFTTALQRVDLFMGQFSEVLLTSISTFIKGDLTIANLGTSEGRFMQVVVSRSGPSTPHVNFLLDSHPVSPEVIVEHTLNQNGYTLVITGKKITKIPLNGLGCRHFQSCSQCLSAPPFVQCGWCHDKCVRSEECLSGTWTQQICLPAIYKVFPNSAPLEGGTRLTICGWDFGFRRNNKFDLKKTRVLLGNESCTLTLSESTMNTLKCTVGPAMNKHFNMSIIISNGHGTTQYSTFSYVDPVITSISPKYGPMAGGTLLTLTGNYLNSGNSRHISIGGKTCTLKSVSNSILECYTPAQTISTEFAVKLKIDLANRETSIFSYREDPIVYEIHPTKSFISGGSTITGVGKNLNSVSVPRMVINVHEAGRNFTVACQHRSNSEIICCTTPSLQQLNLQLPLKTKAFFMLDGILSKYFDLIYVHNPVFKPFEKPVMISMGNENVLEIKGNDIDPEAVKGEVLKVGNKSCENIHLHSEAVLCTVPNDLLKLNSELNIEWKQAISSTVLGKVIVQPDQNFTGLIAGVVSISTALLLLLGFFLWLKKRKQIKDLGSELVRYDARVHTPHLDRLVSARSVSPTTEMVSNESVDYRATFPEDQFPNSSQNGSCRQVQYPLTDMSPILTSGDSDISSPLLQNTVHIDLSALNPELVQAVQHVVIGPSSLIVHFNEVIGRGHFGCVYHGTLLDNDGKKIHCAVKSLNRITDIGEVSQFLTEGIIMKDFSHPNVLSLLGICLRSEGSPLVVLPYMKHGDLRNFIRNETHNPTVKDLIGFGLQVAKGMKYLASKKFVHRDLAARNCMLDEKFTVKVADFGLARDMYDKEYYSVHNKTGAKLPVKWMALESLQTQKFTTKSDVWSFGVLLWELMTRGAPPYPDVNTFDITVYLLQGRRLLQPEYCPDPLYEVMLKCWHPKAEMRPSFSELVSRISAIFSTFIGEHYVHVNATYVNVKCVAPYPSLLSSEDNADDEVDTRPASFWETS
Sequence of Human MET (residues 956-1390) (P08581 956-1390): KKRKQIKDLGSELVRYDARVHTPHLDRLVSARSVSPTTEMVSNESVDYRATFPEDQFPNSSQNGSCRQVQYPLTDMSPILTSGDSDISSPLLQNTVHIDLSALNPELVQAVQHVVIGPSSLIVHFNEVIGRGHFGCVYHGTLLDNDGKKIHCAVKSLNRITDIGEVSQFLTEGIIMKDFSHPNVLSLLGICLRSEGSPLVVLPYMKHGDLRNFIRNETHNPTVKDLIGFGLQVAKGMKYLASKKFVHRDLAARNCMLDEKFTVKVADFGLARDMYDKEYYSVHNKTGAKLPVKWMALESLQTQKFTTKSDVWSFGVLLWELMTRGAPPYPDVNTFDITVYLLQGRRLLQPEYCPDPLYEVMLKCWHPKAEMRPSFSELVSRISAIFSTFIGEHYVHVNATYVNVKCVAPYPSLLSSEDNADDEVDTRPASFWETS

Row | Structure (SMILES) | IC50 [1] [nM] | IC50 [2] [nM]
1 | COC(=O)c1cnc2c(Oc3ccc(NC(=O)c4cnc(C)c(-c5ccc(F)cc5)c4O)cc3F)ccnc2c1 [Compound 138, Methyl 8-[2-fluoro-4-[[5-(4-fluorophenyl)-4-hydroxy-6-methylpyridine-3-carbonyl]amino]phenoxy]-1,5-naphthyridine-3-carboxylate] | < 100 | > 300
2 | COc1cc2nccc(Oc3ccc(NC(=O)c4cn(C(C)(C)C)c(C)c(-c5ccc(F)cc5)c4=O)cc3F)c2nc1OC [Compound 139, 1-tert-Butyl-N-[4-[(6,7-dimethoxy-1,5-naphthyridin-4-yl)oxy]-3-fluorophenyl]-5-(4-fluorophenyl)-6-methyl-4-oxopyridine-3-carboxamide] | < 100 | 100 to 300
3 | COc1cc2nccc(Oc3ccc(NC(=O)c4cn(-c5cnn(C)c5)c(C)c(-c5ccc(F)cc5)c4=O)cc3F)c2nc1OC [Compound 140, N-[4-[(6,7-Dimethoxy-1,5-naphthyridin-4-yl)oxy]-3-fluorophenyl]-5-(4-fluorophenyl)-6-methyl-1-(1-methylpyrazol-4-yl)-4-oxopyridine-3-carboxamide] | < 100 | < 100
4 | COc1cc2nccc(Oc3ccc(NC(=O)c4cnc(C)c(-c5ccc(F)cc5)c4O)cc3F)c2nc1Br [Compound 142, N-[4-[(6-Bromo-7-methoxy-1,5-naphthyridin-4-yl)oxy]-3-fluorophenyl]-5-(4-fluorophenyl)-4-hydroxy-6-methylpyridine-3-carboxamide] | < 100 | < 100
5 | COc1cc2nccc(Oc3ccc(NC(=O)c4cn(C(C)C)c(C)c(-c5ccc(F)cc5)c4=O)cc3F)c2nc1Br [Compound 143, N-[4-[(6-Bromo-7-methoxy-1,5-naphthyridin-4-yl)oxy]-3-fluorophenyl]-5-(4-fluorophenyl)-6-methyl-4-oxo-1-propan-2-ylpyridine-3-carboxamide] | < 100 | < 100
6 | COCCOc1nc2c(Oc3ccc(NC(=O)c4cnc(C)c(-c5ccc(F)cc5C)c4O)cc3F)ccnc2cc1OC [Compound 144, N-[3-Fluoro-4-[[7-methoxy-6-(2-methoxyethoxy)-1,5-naphthyridin-4-yl]oxy]phenyl]-5-(4-fluoro-2-methylphenyl)-4-hydroxy-6-methylpyridine-3-carboxamide] | < 100 | < 100
7 | COc1cnc2c(Oc3ccc(NC(=O)c4cncc(-c5ccc(F)cc5)c4O)cc3)ccnc2c1 [Compound 146, 5-(4-Fluorophenyl)-4-hydroxy-N-[4-[(7-methoxy-1,5-naphthyridin-4-yl)oxy]phenyl]pyridine-3-carboxamide] | < 100 | < 100
8 | COc1cnc2c(Oc3ccc(NC(=O)c4cn(C(C)C)c(C)c(-c5ccc(F)cc5)c4=O)cc3)ccnc2c1 [Compound 148, 5-(4-Fluorophenyl)-N-[4-[(7-methoxy-1,5-naphthyridin-4-yl)oxy]phenyl]-6-methyl-4-oxo-1-propan-2-ylpyridine-3-carboxamide] | < 100 | < 100
9 | Cc1ncc(C(=O)Nc2ccc(Oc3ccnc4cc(C(F)(F)F)cnc34)c(F)c2)c(O)c1-c1ccc(F)cc1 [Compound 151, 5-(4-Fluorophenyl)-N-[3-fluoro-4-[[7-(trifluoromethyl)-1,5-naphthyridin-4-yl]oxy]phenyl]-4-hydroxy-6-methylpyridine-3-carboxamide] | < 100 | < 100
10 | Cc1nc2c(Oc3ccc(NC(=O)c4cn(C(C)C)c(C)c(-c5ccc(F)cc5)c4=O)cc3F)ccnc2cc1Br [Compound 153, N-[4-[(7-Bromo-6-methyl-1,5-naphthyridin-4-yl)oxy]-3-fluorophenyl]-5-(4-fluorophenyl)-6-methyl-4-oxo-1-propan-2-ylpyridine-3-carboxamide] | < 100 | < 100
11 | COc1cc2nccc(Oc3ccc(NC(=O)c4cnc(C(C)(C)C)c(-c5ccc(F)cc5)c4O)cc3F)c2nc1OC [Compound 155, 6-tert-Butyl-N-[4-[(6,7-dimethoxy-1,5-naphthyridin-4-yl)oxy]-3-fluorophenyl]-5-(4-fluorophenyl)-4-hydroxypyridine-3-carboxamide] | < 100 | 100 to 300

Now from value to compound:

Row | IC50 [1] [nM] | IC50 [2] [nM] | Structure (SMILES)
12 | < 100 | < 100 | COc1cc2nccc(Oc3ccc(NC(=O)c4cnc(C)c(-c5ccc(F)cc5)c4O)cc3F)c2nc1OC [Compound 28, N-[4-[(6,7-Dimethoxy-1,5-naphthyridin-4-yl)oxy]-3-fluorophenyl]-5-(4-fluorophenyl)-4-hydroxy-6-methylpyridine-3-carboxamide]
13 | < 100 | < 100 | COc1cc2nccc(Oc3ccc(NC(=O)c4cn(C(C)C)c(C)c(-c5ccccc5)c4=O)cc3F)c2nc1OC [Compound 29, N-[4-[(6,7-Dimethoxy-1,5-naphthyridin-4-yl)oxy]-3-fluorophenyl]-6-methyl-4-oxo-5-phenyl-1-propan-2-ylpyridine-3-carboxamide hydrochloride]
14 | < 100 | < 100 | COc1cc2nccc(Oc3ccc(NC(=O)c4cnc(C)c(-c5ccc(F)cc5)c4O)cc3)c2nc1OC [Compound 119, N-[4-[(6,7-Dimethoxy-1,5-naphthyridin-4-yl)oxy]phenyl]-5-(4-fluorophenyl)-4-hydroxy-6-methylpyridine-3-carboxamide]
15 | < 100 | < 100 | COc1cnc2c(Oc3ccc(NC(=O)c4cncc(-c5ccc(F)cc5)c4O)cc3F)ccnc2c1 [Compound 120, N-[3-Fluoro-4-[(7-methoxy-1,5-naphthyridin-4-yl)oxy]phenyl]-5-(4-fluorophenyl)-4-hydroxypyridine-3-carboxamide]
16 | < 100 | < 100 | COc1cnc2c(Oc3ccc(NC(=O)c4cn(C(C)C)c(C)c(-c5ccc(F)cc5)c4=O)cc3F)ccnc2c1 [Compound 121, N-[3-Fluoro-4-[(7-methoxy-1,5-naphthyridin-4-yl)oxy]phenyl]-5-(4-fluorophenyl)-6-methyl-4-oxo-1-propan-2-ylpyridine-3-carboxamide]
17 | < 100 | < 100 | COc1cc2nccc(Oc3ccc(NC(=O)c4cn(C(C)C)cc(-c5ccc(F)cc5)c4=O)cc3)c2nc1OC [Compound 122, N-[4-[(6,7-Dimethoxy-1,5-naphthyridin-4-yl)oxy]phenyl]-5-(4-fluorophenyl)-4-oxo-1-propan-2-ylpyridine-3-carboxamide]
18 | < 100 | < 100 | COc1cnc2c(Oc3ccc(NC(=O)c4cn(C(C)C)cc(-c5ccc(F)cc5)c4=O)cc3F)ccnc2c1 [Compound 123, N-[3-Fluoro-4-[(7-methoxy-1,5-naphthyridin-4-yl)oxy]phenyl]-5-(4-fluorophenyl)-4-oxo-1-propan-2-ylpyridine-3-carboxamide]
19 | < 100 | < 100 | COc1cc2nccc(Oc3ccc(NC(=O)c4cn(-c5cccnc5)cc(-c5ccc(F)cc5)c4=O)cc3F)c2nc1OC [Compound 125, N-[4-[(6,7-Dimethoxy-1,5-naphthyridin-4-yl)oxy]-3-fluorophenyl]-5-(4-fluorophenyl)-4-oxo-1-pyridin-3-ylpyridine-3-carboxamide]
20 | < 100 | < 100 | COc1cc2nccc(Oc3ccc(NC(=O)c4cn(OC)cc(-c5ccc(F)cc5)c4=O)cc3F)c2nc1OC [Compound 126, N-[4-[(6,7-Dimethoxy-1,5-naphthyridin-4-yl)oxy]-3-fluorophenyl]-5-(4-fluorophenyl)-1-methoxy-4-oxopyridine-3-carboxamide]
21 | < 100 | < 100 | COc1cc2nccc(Oc3ccc(NC(=O)c4cn(OC)cc(-c5ccc(F)cc5)c4=O)cc3)c2nc1OC [Compound 127, N-[4-[(6,7-Dimethoxy-1,5-naphthyridin-4-yl)oxy]phenyl]-5-(4-fluorophenyl)-1-methoxy-4-oxopyridine-3-carboxamide]
22 | < 100 | < 100 | COc1cnc2c(Oc3ccc(NC(=O)c4cn(OC)cc(-c5ccc(F)cc5)c4=O)cc3F)ccnc2c1 [Compound 128, N-[3-Fluoro-4-[(7-methoxy-1,5-naphthyridin-4-yl)oxy]phenyl]-5-(4-fluorophenyl)-1-methoxy-4-oxopyridine-3-carboxamide]
23 | < 100 | 100 to 300 | COc1nc2c(Oc3ccc(NC(=O)c4cncc(-c5ccc(F)cc5)c4O)cc3F)ccnc2cc1Br [Compound 129, N-[4-[(7-Bromo-6-methoxy-1,5-naphthyridin-4-yl)oxy]-3-fluorophenyl]-5-(4-fluorophenyl)-4-hydroxypyridine-3-carboxamide]
24 | < 100 | < 100 | COc1nc2c(Oc3ccc(NC(=O)c4cnc(C)c(-c5ccc(F)cc5)c4O)cc3F)ccnc2cc1Br [Compound 130, N-[4-[(7-Bromo-6-methoxy-1,5-naphthyridin-4-yl)oxy]-3-fluorophenyl]-5-(4-fluorophenyl)-4-hydroxy-6-methylpyridine-3-carboxamide]
25 | < 100 | < 100 | COc1nc2c(Oc3ccc(NC(=O)c4cn(C(C)C)cc(-c5ccc(F)cc5)c4=O)cc3F)ccnc2cc1Br [Compound 131, N-[4-[(7-Bromo-6-methoxy-1,5-naphthyridin-4-yl)oxy]-3-fluorophenyl]-5-(4-fluorophenyl)-4-oxo-1-propan-2-ylpyridine-3-carboxamide]
26 | < 100 | 100 to 300 | COc1nc2c(Oc3ccc(NC(=O)c4cn(C(C)C)c(C)c(-c5ccc(F)cc5)c4=O)cc3F)ccnc2cc1Br [Compound 132, N-[4-[(7-Bromo-6-methoxy-1,5-naphthyridin-4-yl)oxy]-3-fluorophenyl]-5-(4-fluorophenyl)-6-methyl-4-oxo-1-propan-2-ylpyridine-3-carboxamide]
